This note sets out measurements from PubChem BioAssay AID330 (DTP/NCI, 2004).

Where “and” joins values, the source holds several entries; their conditions need not be identical. Equal values may be shown once. Inconclusive results and toxic doses are left out.

The subject of the test is P388 leukemia ip, CD2F1 mice, survival T/C. Nature of the test: NCI In Vivo Anticancer Drug Screen. Data for tumor model P388 Leukemia (intraperitoneal) in CD2F1 (CDF1) mice. Conditions: endpoint: median survival time, higher = longer survival. A digest of the protocol:
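Mice carrying the transplanted tumor received test compound or vehicle. Survival was recorded in each group, and the value is the treated-group measurement divided by that of the vehicle-treated control group.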

The mark [1] stands for this setting: dose: 12.5 mg/kg/injection, schedule: Q01DX005 (ip), vehicle: Klucel (hydroxypropylcellulose) (HPC).
The mark [2] stands for this setting: dose: 25.0 mg/kg/injection, schedule: Q01DX005 (ip), vehicle: Klucel (hydroxypropylcellulose) (HPC).
The mark [3] stands for this setting: dose: 50.0 mg/kg/injection, schedule: Q01DX005 (ip), vehicle: Klucel (hydroxypropylcellulose) (HPC).
[4] abbreviates: dose: 50.0 mg/kg/injection, schedule: Q01DX009 (ip), vehicle: Klucel (hydroxypropylcellulose) (HPC).
Where [5] appears, read: dose: 100.0 mg/kg/injection, schedule: Q01DX009 (ip), vehicle: Klucel (hydroxypropylcellulose) (HPC).
[6] abbreviates: dose: 200.0 mg/kg/injection, schedule: Q01DX009 (ip), vehicle: Klucel (hydroxypropylcellulose) (HPC).
[7] abbreviates: dose: 60.0 mg/kg/injection, schedule: Q01DX005 (ip), vehicle: saline with Tween-80.
The mark [8] stands for this setting: dose: 120.0 mg/kg/injection, schedule: Q01DX005 (ip), vehicle: saline with Tween-80.
Where [9] appears, read: dose: 240.0 mg/kg/injection, schedule: Q01DX005 (ip), vehicle: saline with Tween-80.
The mark [10] stands for this setting: dose: 50.0 mg/kg/injection, schedule: Q01DX009 (ip), vehicle: saline.
Where [11] appears, read: dose: 100.0 mg/kg/injection, schedule: Q01DX009 (ip), vehicle: saline.
Setting [12] is: dose: 200.0 mg/kg/injection, schedule: Q01DX009 (ip), vehicle: saline.
Setting [13] is: dose: 6.25 mg/kg/injection, schedule: Q01DX009 (ip), vehicle: saline.
Setting [14] is: dose: 12.5 mg/kg/injection, schedule: Q01DX009 (ip), vehicle: saline.
The mark [15] stands for this setting: dose: 25.0 mg/kg/injection, schedule: Q01DX009 (ip), vehicle: saline.

As to `Nc1cc2ccncc2c2ccccc12`, the T/C (dose: 50.0 mg/kg/injection, schedule: Q04DX003 (ip), vehicle: saline sonified) was 100 % of control; the T/C (dose: 100.0 mg/kg/injection, schedule: Q04DX003 (ip), vehicle: saline sonified) was 90 % of control; the T/C (dose: 200.0 mg/kg/injection, schedule: Q04DX003 (ip), vehicle: saline sonified) was 95 % of control.
As to `Cc1cc2nc3c(C4OCC(O)C4O)nn(-c4ccc(F)cc4)c3nc2cc1C` (centres undefined), the T/C by setting is: under setting [1], 95 % of control; under setting [2], 90 % of control; under setting [3], 88 % of control.
Take `CC(=O)Nc1ccc(O)c(CN2CCN(c3ccccc3)CC2)c1`: the T/C was 102 % of control under setting [4], 103 % of control under setting [5] and 97 % of control under setting [6].
With `OCC1CCN(CCOCc2ccccc2)C1` (centres undefined), the T/C under setting [7] was 94 % of control and the T/C under setting [8] is 102 % of control.
Regarding `CCN(CC)CCCC(C)Nc1c(C)cnc2cc(Cl)ccc12` (centres undefined), the T/C is 98 % of control (dose: 50.0 mg/kg/injection, schedule: Q01DX005 (ip), vehicle: saline) and 108 % of control (dose: 100.0 mg/kg/injection, schedule: Q01DX005 (ip), vehicle: saline).
On to `O=C1c2ccccc2-c2nc3cncnc3nc21` (tested in a mixture with another compound), for which the T/C (dose: 50.0 mg/kg/injection, schedule: Q04DX003 (ip), vehicle: saline) is 109 % of control; the T/C (dose: 100.0 mg/kg/injection, schedule: Q04DX003 (ip), vehicle: saline) is 109 % of control; the T/C (dose: 200.0 mg/kg/injection, schedule: Q04DX003 (ip), vehicle: saline) was 104 % of control.
Take `O=C(/C=C/C(=O)Nc1ccc(F)cc1F)Nc1ccc(F)cc1F`: the T/C was 94 % of control and 95 % of control under setting [7]; 98 % of control under setting [8]; 104 % of control and 97 % of control under setting [9].
Take `CC1=NCCN=C(C)C1N=Nc1ccccc1`: the T/C is 90 % of control (dose: 100.0 mg/kg/injection, schedule: Q04DX003 (ip), vehicle: saline with Tween-80) and 90 % of control (dose: 200.0 mg/kg/injection, schedule: Q04DX003 (ip), vehicle: saline with Tween-80).
On to `COc1ccc(CSC(=S)Nc2cccc(C(F)(F)F)c2)cc1`, for which the T/C runs as follows: under setting [10], 97 % of control; (dose: 50.0 mg/kg/injection, schedule: Q01DX009 (ip), vehicle: suspension in saline) 90 % of control; under setting [11], 101 % of control; under setting [12], 118 % of control; (dose: 200.0 mg/kg/injection, schedule: Q01DX009 (ip), vehicle: suspension in saline) 99 % of control.
For the compound `O=C1C[N+]2(CCCCC2)c2ccc(Cl)cc2N1`, the T/C is, setting by setting: under setting [13], 104 % of control; (dose: 6.25 mg/kg/injection, schedule: Q04DX003 (ip), vehicle: saline) 100 % of control; under setting [14], 109 % of control; (dose: 12.5 mg/kg/injection, schedule: Q04DX003 (ip), vehicle: saline) 104 % of control; under setting [15], 104 % of control; (dose: 25.0 mg/kg/injection, schedule: Q04DX003 (ip), vehicle: saline) 100 % of control.
As to `COc1cc2c(cc1OC)C(CN)C2` (centres undefined), the T/C is 111 % of control under setting [15], 109 % of control under setting [10] and 119 % of control under setting [11].
`CC1=NN(c2ccccc2)C(=O)C1N=Nc1ccccc1S(=O)(=O)O` (centres undefined): the T/C reads like this: under setting [10], 108 % of control; under setting [11], 109 % of control; under setting [12], 111 % of control.
As for `c1ccc2sc(SSN3CC4CCC(CC4)C3)nc2c1`, the T/C is 102 % of control (dose: 12.5 mg/kg/injection, schedule: Q01DX009 (ip), vehicle: saline with Tween-80); 107 % of control (dose: 25.0 mg/kg/injection, schedule: Q01DX009 (ip), vehicle: saline with Tween-80); 123 % of control (dose: 50.0 mg/kg/injection, schedule: Q01DX009 (ip), vehicle: saline with Tween-80); 115 % of control (dose: 100.0 mg/kg/injection, schedule: Q01DX009 (ip), vehicle: saline with Tween-80).
For `O=C(NC1C=Nc2ccc(Cl)cc2NC1=O)c1ccc2ccccc2c1` (centres undefined), the T/C is 90 % of control (dose: 60.0 mg/kg/injection, schedule: Q01DX005 (ip), vehicle: Klucel (hydroxypropylcellulose) (HPC)); 91 % of control (dose: 120.0 mg/kg/injection, schedule: Q01DX005 (ip), vehicle: Klucel (hydroxypropylcellulose) (HPC)); 92 % of control (dose: 240.0 mg/kg/injection, schedule: Q01DX005 (ip), vehicle: Klucel (hydroxypropylcellulose) (HPC)).
In the case of `CCOC(=O)N1CCC23C=C(OC)C(=O)C=C2C1Cc1ccc(OC)c(O)c13` (centres undefined), the T/C is 100 % of control (dose: 100.0 mg/kg/injection, schedule: Q04DX002 (ip), vehicle: saline with Tween-80); 105 % of control (dose: 200.0 mg/kg/injection, schedule: Q04DX002 (ip), vehicle: saline with Tween-80); 93 % of control (dose: 400.0 mg/kg/injection, schedule: Q04DX002 (ip), vehicle: saline with Tween-80).
Regarding `O=S(=O)(NN=C(c1ccccc1)c1ccccc1)c1ccccc1`, the T/C (dose: 25.0 mg/kg/injection, schedule: Q01DX009 (ip), vehicle: Klucel (hydroxypropylcellulose) (HPC)) was 99 % of control; the T/C under setting [4] was 93 % of control; the T/C under setting [5] is 101 % of control; the T/C under setting [6] was 106 % of control; the T/C (dose: 400.0 mg/kg/injection, schedule: Q01DX009 (ip), vehicle: Klucel (hydroxypropylcellulose) (HPC)) is 90 % of control.
As for `CCOC(=O)c1ccc2c(c1)CCC2`, the T/C runs as follows: (dose: 50.0 mg/kg/injection, schedule: Q01DX009 (ip), vehicle: acetone) 104 % of control; (dose: 100.0 mg/kg/injection, schedule: Q01DX009 (ip), vehicle: acetone) 104 % of control.
For the compound `COc1cc(NCCCCCCNC(C)C)c2nccc(C)c2c1`, the T/C reads like this: (dose: 3.13 mg/kg/injection, schedule: Q01DX009 (ip), vehicle: saline) 91 % of control; under setting [13], 99 % of control; under setting [14], 99 % of control.
Take `CC(C)C1NC(=O)C2=CN(Cc3ccccc3)C=CC2NC(=O)C(C(C)C)NC(=O)C2=CN(Cc3ccccc3)C=CC2NC1=O` (centres undefined): the T/C runs as follows: under setting [7], 94 % of control; under setting [8], 100 % of control; under setting [9], 97 % of control.
Consider `O=C1NC(O)c2cc(F)ccc2O1` (centres undefined), for which the T/C (dose: 25.0 mg/kg/injection, schedule: Q01DX005 (ip), vehicle: saline with Tween-80) is 104 % of control; the T/C (dose: 50.0 mg/kg/injection, schedule: Q01DX005 (ip), vehicle: saline with Tween-80) is 105 % of control and 110 % of control; the T/C (dose: 100.0 mg/kg/injection, schedule: Q01DX005 (ip), vehicle: saline with Tween-80) was 111 % of control and 115 % of control; the T/C (dose: 200.0 mg/kg/injection, schedule: Q01DX005 (ip), vehicle: saline with Tween-80) was 111 % of control.
With `O=C(Nc1cccc(C2=NCCCN2)c1)Nc1ccc(NC(=O)Nc2cccc(C3=NCCCN3)c2)c(Cl)c1`, the T/C runs as follows: (dose: 0.6 mg/kg/injection, schedule: Q04DX003 (ip), vehicle: saline) 109 % of control; (dose: 1.25 mg/kg/injection, schedule: Q04DX003 (ip), vehicle: saline) 109 % of control; (dose: 2.5 mg/kg/injection, schedule: Q04DX003 (ip), vehicle: saline) 109 % of control; (dose: 10.0 mg/kg/injection, schedule: Q04DX003 (ip), vehicle: saline with Tween-80) 170 % of control; (dose: 20.0 mg/kg/injection, schedule: Q04DX003 (ip), vehicle: saline) 164 % of control; (dose: 26.4 mg/kg/injection, schedule: Q04DX003 (ip), vehicle: saline with Tween-80) 183 % of control. Further, the T/C (dose: 40.0 mg/kg/injection, schedule: Q04DX003 (ip), vehicle: saline) is 204 % of control.
For `c1ccc(C(Nc2nncs2)Nc2nncs2)cc1`, the T/C is, setting by setting: (dose: 30.0 mg/kg/injection, schedule: Q01DX005 (ip), vehicle: saline with Tween-80) 99 % of control; under setting [7], 100 % of control and 112 % of control; under setting [8], 117 % of control; under setting [9], 157 % of control and 164 % of control.
Regarding `[CH3][Sn]1([CH3])[O]C(=O)CC(CC(=O)O)C(=O)[O]1` (centres undefined), the T/C was 119 % of control under setting [1]; 117 % of control under setting [2]; 113 % of control and 117 % of control under setting [3].
